Results reported in patent US11364275B2, “Linear lipopeptide paenipeptins and methods of using the same” (priority 2017, dated 2022).
In brackets after ≈: the same amount, converted by molar mass. Where two headings read alike, the source gives them in different places. Where a SMILES comes first, the peptide text is derived from it. [ ]: non-standard residue; d: D form. The star is where a group is joined. Cha = N[C@@H](CC1CCCCC1)C(=O)O; Decanoyl = CCCCCCCCCC(=O)*; Octanoyl = CCCCCCCC(=O)*; Dab = NCC[C@H](N)C(=O)O

Assays:
[1] = test system: Enterococcus faecium ATCC 19434; assay type: cell-based; details: ATCC 19434
Procedure: (§4) The minimum inhibitory concentration (MIC) of paenipeptin analogues was determined using the broth microdilution method (Wirker, M. A. Methods for Dilution Antimicrobial Susceptibility Tests for Bacteria that Grow Aerobically: Approved Standard M07-A8; Clinical and Laboratory Standards Institute, Wayne, Pa., 2009). Seven reference strains (Acinetobacter baumannii ATCC 19606, Escherichia coli ATCC 25922, Klebsiella pneumoniae ATCC 13883, Pseudomonas aeruginosa ATCC 27853, Enterococcus faecium ATCC 19434, Staphylococcus aureus ATCC 29213 and methicillin-resistant S. aureus ATCC 43300) were subjected to MIC testing.
(§5) Paenipeptin analogues were two-fold diluted in tryptic soy broth (TSB; Becton Dickinson) and mixed with an equal volume of bacterial suspensions in TSB containing approximately 1.5×10^5 colony-forming units (CFU)/mL in a clear UV-sterilized 96-well microtiter plate (NBS, Corning Inc., Corning, N.Y.). […] The microtiter plate was incubated at 37° C. for 18-20 h.

[2] = test system: Escherichia coli ATCC 25922; assay type: cell-based; details: ATCC 25922
Procedure: as §4, §5

[3] = test system: Acinetobacter baumannii ATCC 19606; assay type: cell-based; details: ATCC 19606
[4] = test system: Acinetobacter baumannii ATCC 19606; assay: MIC of antibiotics with or without paenipeptin analogues (potentiation); assay type: cell-based; details: A. baumannii ATCC 19606; for Sensitization factor (clarithromycin) / Sensitization factor (erythromycin): 4 μg/mL paenipeptin
Source text: (§1) Gram-negative bacteria, including Acinetobacter and Klebsiella, are intrinsically resistant to the hydrophobic antibiotic rifampicin.

[5] = test system: Klebsiella pneumoniae ATCC 13883; assay: as above; assay type: cell-based; details: K. pneumoniae ATCC 13883; for Sensitization factor (clarithromycin): 4 μg/mL paenipeptin
Source text: as §1

S. aureus ATCC 29213 [6] = assay type: cell-based, Staphylococcus aureus; details: ATCC 29213
Procedure: (§2) The impact of human serum on the antibacterial activity of selected paenipeptin analogues was determined using a procedure similar to that used for MIC determination as described above except that the microbiological medium was replaced by human serum (MP Biomedicals, Solon, Ohio). Paenipeptin analogues were two-fold diluted in 100% human serum and mixed with an equal volume of 90% serum containing approximately 1.5×10^5 CFU/mL of E. coli ATCC 25922 or S. aureus ATCC 29213. The final paenipeptin concentrations ranged from 0.5-64 μg/mL in 95% serum. The MIC in the presence of serum was then tested as described above.

[7] = test system: Staphylococcus aureus ATCC 29213; assay type: cell-based; details: ATCC 29213
[8] = test system: Pseudomonas aeruginosa ATCC 27853; assay type: cell-based; details: ATCC 27853
Procedure: as §4, §5

[9] = test system: Escherichia coli ATCC 25922; assay type: in vitro ADME
Procedure: To determine the stability of peptides in human serum, paenipeptin analogues were added into 100% human serum to a final concentration of 64 μg/ml. The mixtures were incubated at 37° C. and samples were withdrawn at 0, 6, 12 and 24 h. […] The residual antibacterial activity after incubation in human serum was compared to the non-treated control.

rabbit red blood cells = assay: Hemolytic activity; assay type: cell-based; details: for Hemolysis: relative to Triton X-100
Procedure: Hemolytic activity was evaluated using defibrinated rabbit blood in a 96-well plate as described previously. A nonionic surfactant Triton X-100, which is capable of lysing red blood cells (RBCs), was used at 0.1% as a positive control. Briefly, rabbit blood (Hardy Diagnostics, Santa Maria, Calif.) was diluted with phosphate buffered saline (PBS; pH 7.2) at a 1:19 ratio (v/v) and free hemoglobin was removed by washing RBCs and centrifugation four times at 1,000×g at 4° C. for 5 min. Aliquots (50 μL) of washed RBCs were incubated with 150 μL two-fold dilutions of paenipeptin analogues at final concentrations of 16-128 μg/mL at 37° C. for 30 min in a microtiter plate (NBS, Corning Inc.). After incubation, treated RBCs were gently mixed by repeated pipetting. Aliquots (20 μL) of the cell suspension were mixed with 200 μL PBS in a new 96-well plate and centrifuged at 2,204×g for 10 min. The supernatant was transferred to a new 96-well plate for absorbance measurement at 415 nm using a Cell Imaging Multimode Reader (Cytation 3, BioTek; Winooski, Vt.). The percent hemolysis observed after exposure to each paenipeptin analogue was calculated relative to Triton X-100.

E. coli ATCC 25922 = assay type: cell-based, Escherichia coli; details: ATCC 25922
Procedure: as §2

P. aeruginosa ATCC 27853 = assay type: cell-based, Pseudomonas aeruginosa
Source text: (§3) The surviving cells from each antimicrobial concentration with no visible growth were enumerated by plating on tryptic soy agar (TSA). MBC was defined as the lowest concentration of the antimicrobial agent that led to at least a 99.9% reduction in the number of viable bacterial cells relative to the initial inoculum. There were three independent experiments with one replicate in each experiment.

S. aureus ATCC 29213 [10] = assay type: cell-based, Staphylococcus aureus
Source text: as §3

S. aureus ATCC 43300 = assay type: cell-based, Staphylococcus aureus
Source text: as §3

K. pneumoniae ATCC 13883 = assay type: cell-based, Klebsiella pneumoniae
Source text: as §3

[11] = test system: Klebsiella pneumoniae ATCC 13883; assay type: cell-based; details: ATCC 13883
Procedure: as §4, §5

[12] = test system: methicillin-resistant S. aureus strain LAC biofilm; assay: Established catheter-associated biofilm in vitro; assay type: cell-based, Staphylococcus aureus; details: data not shown
Procedure: Each well was inoculated with the methicillin-resistant S. aureus strain LAC or P. aeruginosa ATCC 27853 to an OD600nm of 0.05. […] After 72 h of exposure, catheters were rinsed with PBS, followed by sonication (for S. aureus) or vigorous vortexing (for P. aeruginosa) to quantitatively recover adherent bacteria. Viable S. aureus or P. aeruginosa cells were enumerated by plating serial dilutions on TSA.

A. baumannii ATCC 19606 = assay type: cell-based, Acinetobacter baumannii
Source text: as §3

[13] = test system: methicillin-resistant S. aureus ATCC 43300; assay type: cell-based, Staphylococcus aureus; details: ATCC 43300
Procedure: as §4, §5

E. faecium ATCC 19434 = assay type: cell-based, Enterococcus faecium
Source text: as §3

S. aureus ATCC 29213 [14] = details: cited from earlier work

Compound | MIC [2] | Minimum inhibitory concentration [2] | MIC [3] | MIC of ampicillin in the presence of […] μg/ml paenipeptin analogue [4] | MIC of erythromycin in the presence of […] μg/ml paenipeptin analogue [4] | MIC of rifampicin at 2 μg/mL of paenipeptin analogue [4] | MIC of vancomycin in the presence of […] μg/ml paenipeptin analogue [4] | Sensitization factor (clarithromycin) [4] | Sensitization factor (erythromycin) [4] | MIC of ampicillin in the presence of […] μg/ml paenipeptin analogue [5] | MIC [7] | Minimum inhibitory concentration [7] | MIC [8] | Hemolysis (rabbit red blood cells; 16 μg/mL) | Hemolysis (rabbit red blood cells; 32 μg/mL) | Hemolysis (rabbit red blood cells; 64 μg/mL) | hemolytic activity (in words) (rabbit red blood cells; 128 μg/mL) | Hemolysis (rabbit red blood cells; 128 μg/mL) | MBC (P. aeruginosa ATCC 27853) | MIC [11] | further results
CC[C@H](C)[C@H](NC(=O)[C@H](CCN)NC(=O)[C@@H](N)CC1CCCCC1)C(=O)N[C@@H](CCN)C(=O)N[C@H](Cc1ccccc1)C(=O)N[C@@H](CC(C)C)C(=O)N[C@@H](CCN)C(=O)N[C@@H](C(=O)N[C@@H](CC(C)C)C(=O)N[C@@H](CO)C(N)=O)C(C)C [Analogue 16] (H-[Cha][Dab]I[Dab][dF]L[Dab][dV]LS-NH2) | 4 to 8 µg/mL | 4 to 8 µg/mL | ≥32 µg/mL | 8-16 μg/ml | 0.5 μg/ml | 0.0039-0.0078 μg/ml | 0.5-1 μg/ml | 2,048 | 64 | 32 μg/ml | >32 µg/mL | >32 µg/mL | 2 to 8 µg/mL | 0.55 ± 0.75% | 0.33 ± 0.83% | 0.65 ± 0.62% | non-hemolytic | 1.63 ± 0.40% | 16 to 32 µg/mL | – | MIC [1]: >32 µg/mL; MIC of clarithromycin in the presence of […] μg/ml paenipeptin analogue [4]: 0.0156 μg/ml; Sensitization factor (rifampicin) ([4]; MIC without / with 4 μg/mL paenipeptin): 4,096; MIC of erythromycin in the presence of […] μg/ml paenipeptin analogue [5]: 0.0625 μg/ml; MIC of rifampicin at 2 μg/mL of paenipeptin analogue [5]: 0.0039 μg/ml; MIC of rifampicin at 4 μg/mL of paenipeptin analogue [5]: <0.00098-0.00195 μg/ml; MIC of vancomycin in the presence of […] μg/ml paenipeptin analogue [5]: >32 μg/ml; Sensitization factor (clarithromycin) [5]: 2,048-4,096; Minimum inhibitory concentration (S. aureus ATCC 29213 [6]): >64 µg/mL; MIC after incubation in human serum at 37° C. [9]: > 32 µg/mL; MIC after incubation in human serum at 37° C. ([9]; ATCC 25922, 0 h): 1 to 2 µg/mL; MIC after incubation in human serum at 37° C. ([9]; ATCC 25922, 12 h): >32 µg/mL; MIC after incubation in human serum at 37° C. ([9]; ATCC 25922, 24 h): >32 µg/mL; Minimum inhibitory concentration (E. coli ATCC 25922): 2 µg/mL (≈ 1.75 µM)
CCCCCCCCCC(=O)N[C@@H](CCN)C(=O)N[C@H](C(=O)N[C@@H](CCN)C(=O)N[C@H](Cc1ccccc1)C(=O)N[C@@H](CC(C)C)C(=O)N[C@@H](CCN)C(=O)N[C@@H](C(=O)N[C@@H](CC(C)C)C(=O)N[C@@H](CO)C(N)=O)C(C)C)[C@@H](C)CC [Analogue 12] (Decanoyl-[Dab]I[Dab][dF]L[Dab][dV]LS-NH2) | 2 to 8 µg/mL | 2 to 8 µg/mL | 0.5 to 2 µg/mL | – | – | – | – | – | – | – | 2 to 4 µg/mL | 2 to 4 µg/mL | 1 to 2 µg/mL | 14.3 ± 4.25% | 37.2 ± 8.62% | 73.4 ± 7.59% | strong hemolytic activity | 93.9 ± 7.57% | 2 to 4 µg/mL | 2 to 4 µg/mL | MBC (S. aureus ATCC 29213 [10]): 4 to 8 µg/mL; MBC (S. aureus ATCC 43300): 2 to 4 µg/mL; MBC (K. pneumoniae ATCC 13883): 4 to 8 µg/mL; activity against established catheter-associated biofilm (in words) [12]: no activity; MBC (A. baumannii ATCC 19606): 0.5 to 2 µg/mL; MIC [13]: 2 to 4 µg/mL; MBC (E. faecium ATCC 19434): 2 to 4 µg/mL
CCCCCCCC(=O)N[C@@H](CCN)C(=O)N[C@H](C(=O)N[C@@H](CCN)C(=O)N[C@H](Cc1ccccc1)C(=O)N[C@@H](CC(C)C)C(=O)N[C@@H](CCN)C(=O)N[C@@H](C(=O)N[C@@H](CC(C)C)C(=O)N[C@@H](CCN)C(N)=O)C(C)C)[C@@H](C)CC [Analogue 9] (Octanoyl-[Dab]I[Dab][dF]L[Dab][dV]L[Dab]-NH2) | 4 to 16 µg/mL | 4 to 16 µg/mL | ≥32 µg/mL | 1-2 μg/ml | 0.125-0.25 μg/ml | 0.0019 μg/ml | 0.25-0.5 μg/ml | 4,096-8,192 | 128-256 | 32 μg/ml | >32 µg/mL | >32 µg/mL | 2 to 4 µg/mL | 0.52 ± 0.58% | 0.80 ± 0.68% | 0.73 ± 0.50% | non-hemolytic | 2.25 ± 2.18% | – | >32 µg/mL | MIC of rifampicin at 4 μg/mL of paenipeptin analogue [4]: 0.00195 μg/ml; MIC of clarithromycin in the presence of […] μg/ml paenipeptin analogue [5]: 0.0156 μg/ml; MIC of erythromycin in the presence of […] μg/ml paenipeptin analogue [5]: 0.0625 μg/ml; MIC of rifampicin at 4 μg/mL of paenipeptin analogue [5]: <0.00098-0.00195 μg/ml; MIC of vancomycin in the presence of […] μg/ml paenipeptin analogue [5]: 16 μg/ml; Sensitization factor (clarithromycin) [5]: 2,048; MIC after incubation in human serum at 37° C. ([9]; ATCC 25922, 0 h): 1 to 2 µg/mL; MIC after incubation in human serum at 37° C. ([9]; ATCC 25922, 12 h): 1 to 2 µg/mL; Minimum inhibitory concentration (E. coli ATCC 25922): 2 to 4 µg/mL
CCCCCCCC(=O)N[C@@H](CCN)C(=O)N[C@H](C(=O)N[C@@H](CCN)C(=O)N[C@H](Cc1ccccc1)C(=O)N[C@@H](CC(C)C)C(=O)N[C@@H](CCN)C(=O)N[C@@H](C(=O)N[C@@H](CC(C)C)C(=O)N[C@@H](CO)C(N)=O)C(C)C)[C@@H](C)CC [Analogue 8, C8-Pat] (Octanoyl-[Dab]I[Dab][dF]L[Dab][dV]LS-NH2) | 2 to 4 µg/mL | 2 to 4 µg/mL | – | – | – | – | – | – | – | – | 8 to 16 µg/mL | 8 to 16 µg/mL | – | 0.93 ± 0.45% | 1.91 ± 0.25% | 6.18 ± 2.48% | – | 25.3 ± 4.15% | 8 to 16 µg/mL | 8 to 16 µg/mL | MBC (S. aureus ATCC 43300): 8 to 32 µg/mL; MBC (K. pneumoniae ATCC 13883): 8 to 16 µg/mL; MBC (A. baumannii ATCC 19606): 16 to 32 µg/mL; Minimum inhibitory concentration (S. aureus ATCC 29213 [6]): 16 to 32 µg/mL; MIC [13]: 8 to 16 µg/mL; MBC (E. faecium ATCC 19434): 16 to 32 µg/mL
MX-2401 | – | – | – | – | – | – | – | – | – | – | – | – | – | – | – | – | – | – | – | – | MIC (S. aureus ATCC 29213 [14]; 95% mouse serum): 128 µg/mL; MIC (S. aureus ATCC 29213 [14]; microbiological medium): 2 µg/mL
